Laboratory results: article PMC10896221, “Elucidating the glycan-binding specificity and structure of Cucumis melo agglutinin, a new R-type lectin” (Beilstein Journal of Organic Chemistry, 2024)

Legend:
[1] = target: T1, Cucumis melo agglutinin (CMA1) (Cucumis melo, UniProt A0A1S4E5V9, L33V); test: X-ray crystal structure ([…] Å) and ITC; thermal shift with full-length protein; type: binding
T1 construct: gene LOC107992255; CMA1-Nter, N-terminal domain (6–132 in mature protein)

[2] = target: T2, Cucumis melo agglutinin (CMA1) (Cucumis melo, UniProt A0A1S4E5V9); test: X-ray crystal structure ([…] Å); SPR competition on GalNAc chip; type: binding
T2 construct: gene LOC107992255; full-length CMA1, both CBM13 domains; probably CHO-S expressed with C-terminal His6
T2 sequence (A0A1S4E5V9 entry or part of it): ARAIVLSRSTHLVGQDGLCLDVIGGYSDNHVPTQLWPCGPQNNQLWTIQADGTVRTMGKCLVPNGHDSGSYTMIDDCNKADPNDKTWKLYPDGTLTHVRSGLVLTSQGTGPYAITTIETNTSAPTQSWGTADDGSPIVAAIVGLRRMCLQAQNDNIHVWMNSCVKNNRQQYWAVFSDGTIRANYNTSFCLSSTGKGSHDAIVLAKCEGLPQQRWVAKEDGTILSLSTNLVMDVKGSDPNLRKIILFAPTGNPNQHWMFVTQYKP

T1 sequence (A0A1S4E5V9 entry or part of it L33V): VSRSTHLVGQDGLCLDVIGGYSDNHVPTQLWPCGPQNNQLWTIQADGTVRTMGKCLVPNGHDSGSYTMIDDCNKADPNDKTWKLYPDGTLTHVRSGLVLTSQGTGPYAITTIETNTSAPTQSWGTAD

Row | Compound | Kd [1] [µM] | IC50 [2] [µM]
1 | CC(=O)N[C@@H]1[C@@H](O)[C@@H](O)[C@@H](CO)O[C@H]1O [GalNAc] | 940 | –
2 | CC(=O)N[C@@H]1[C@@H](O)[C@H](O[C@@H]2O[C@H](CO)[C@H](O)[C@H](O)[C@H]2O)[C@@H](CO)O[C@@H]1O [LacNAc, N-acetyllactosamine] | – | 1.4
